The values below come from article doi:10.1101/157495v1 (biorxiv, 2017).

The target in assay [1] is AncCDT-1. The assay is described as follows: isothermal titration calorimetry. Particulars: 20 mM Na2HPO4, 150 mM NaCl, pH 7.4, 25 °C; on-column refolded protein. The class given is binding, synthetic construct. (In general: ITC needs no label: the signal is the heat of the interaction.)
Assay [2] concerns the target Ws0279 (Wolinella succinogenes, UniProt Q7MAG0). The assay is described as follows: biochemical. Particulars: read-out: ΔTM.
The target of assay [3] is T1, Pu1068 (Candidatus Pelagibacter communis, UniProt Q4FLR5).
T1 sequence (Q4FLR5 19-255): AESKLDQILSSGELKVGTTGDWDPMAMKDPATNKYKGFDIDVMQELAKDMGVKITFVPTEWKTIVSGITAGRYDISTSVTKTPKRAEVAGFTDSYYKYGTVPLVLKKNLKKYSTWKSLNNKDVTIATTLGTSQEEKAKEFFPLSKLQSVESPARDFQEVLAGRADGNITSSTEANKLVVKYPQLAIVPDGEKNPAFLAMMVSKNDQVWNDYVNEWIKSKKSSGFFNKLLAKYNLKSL
Nature of the assay: intrinsic tryptophan fluorescence titration. The class given is binding.

SMILES strings stand for the structures.

The term Kd denotes the concentration at which binding is half-saturated. Lower therefore signals a tighter complex. As usually defined, the ΔTm is the shift of the melting midpoint relative to a reference.

Chain of Ws0279 (Q7MAG0 24-258): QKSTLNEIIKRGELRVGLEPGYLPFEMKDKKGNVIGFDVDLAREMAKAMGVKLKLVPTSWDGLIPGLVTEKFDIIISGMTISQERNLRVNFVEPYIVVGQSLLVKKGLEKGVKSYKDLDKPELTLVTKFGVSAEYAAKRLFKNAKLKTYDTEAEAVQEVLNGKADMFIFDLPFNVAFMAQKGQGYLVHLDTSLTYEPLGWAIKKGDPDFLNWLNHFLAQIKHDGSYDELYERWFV

In turn, `N=C(N)NCCC[C@H](N)C(=O)O` [L-arginine] showed an equilibrium dissociation constant (Kd) in assay [1] of 320 nM. Regarding `N[C@@H](Cc1cnc[nH]1)C(=O)O` [L-histidine], binding in assay [1] was put at a Kd of 2300 nM. With `NCCCC[C@H](N)C(=O)O` [L-lysine], the thermal shift (ΔTm) at 10000 µM in assay [2] amounted to 7.2 °C. In addition, the Kd in assay [1] worked out at 6700 nM. In assay [1], `NCCC[C@H](N)C(=O)O` [L-ornithine] showed a Kd of 1200 nM.

`C[N+]1(CCCS(=O)(=O)[O-])CCCCC1` [NDSB-221, 3-(1-methylpiperidinium-1-yl)propane-1-sulfonate] registered a Kd in assay [3] of 530000 nM.
